According to US10016365B2, “Compositions and methods of tumor treatment utilizing nanoparticles” (priority 2015, dated 2018):
Where two headings read alike, the source gives them in different places.

Experiments:
[1] = hepatic artery infusion; cited from earlier work
[2] = system: human ovarian cancer cell line ES-2; assay type: in vivo; conditions: regional delivery
Source text: (§1) Experiments were repeated in triplicate.
as §1, §1, §1, §1

[3] = human, in vivo, ip; cited from earlier work
[4] = system: human ovarian cancer cell line ES-2; test: Flow cytometry apoptosis assay of tumor after treatment; assay type: in vivo, SCID mice; conditions: systematic delivery
Source text: A single intraperitoneal injection of human ovarian cancer cell line ES-2 (2×10^5 cells per mouse, ATCC no. CRL-1978) at d0 into 5-week-old SCID mice (CB.17 scid/scid) was commenced to generate tumor, which was confirmed via abdominal distension and malignant ascites in 3 weeks. […] Animals were used in compliance with institutional animal health care regulations, and all animal experimental procedures were approved by the Institutional Animal Care and Use Committee. Tumor-bearing mice were euthanized at the endpoint when there were signs of distress, including fur ruffling, rapid respiratory rate, hunched posture, reduced activity, and progressive ascites formation. Groups of mice were treated. A 2-factor factorial design was implemented with factor 1 (systematic delivery versus regional delivery) and factor 2 (free drug versus nanomedicine). […] The dosing schedule for each paired drugs (free drug and nanomedicine) was given on maximal tolerated dose based on preliminary study.

lung metastases = test: Lung metastases model (tail vein injection of tumor cells); assay type: in vivo, SCID mice
Protocol: (7B) Control of lung metastases. Mouse was induced lung metastases by tail vein injection of tumor cells at d1.
Animals were used in compliance with institutional animal health care regulations, and all animal experimental procedures were approved by the Institutional Animal Care and Use Committee. […] Groups of mice were treated. A 2-factor factorial design was implemented with factor 1 (systematic delivery versus regional delivery) and factor 2 (free drug versus nanomedicine). […] The dosing schedule for each paired drugs (free drug and nanomedicine) was given on maximal tolerated dose based on preliminary study. Lung metastases were induced by tail-vein injection, while liver metastases were by splenic injection, and retroperitoneal lymphatic metastases were induced by intra-uterine injection of tumor cells.

[5] = system: cancer stem cells of ES-2 tumors; test: Cancer stem cell analysis of treated tumors (tumor sphere, side population, RT-PCR); assay type: in vivo, SCID mice
Protocol: (8A) Tumor sphere-forming ability of treated tumor. Mouse was implanted with ES-2 cells (2×10^6/mouse) at day 1 and was treated at day 5, day 8, and day 11 at indicated dosage. Tumors were retrieved at day 14 for each indicated group. Tumors were dissociated into single cell suspension and cultured in an ultralow dish for 10 days. […] Representative figures are shown. (8B) Summary of tumor sphere formation (mean±SD). (8C) Flow cytometry analysis of Hoechst 33342-stained cells and identification of side population cells. Percentage of side population cells are shown. (D-G) RT-PCR analysis for the expressions of stemness marker (8D), genes for epithelial-mesenchymal transition (EMT) driver and expression of epithelial or mesenchymal phenotype (8E), genes for tumor angiogenesis (8F), and genes for multidrug resistance (8G). (8H) CXCR4/CXCL12 axis in stem cells maintenance. […] Experiments were repeated in triplicate.

CT-26-luc cells = test: Antitumor activity in colon cancer syngeneic mice model (CT-26-luc i.p., BLI and survival); assay type: in vivo, BALB/c mice
Protocol: Tumor cell growth was determined by measuring bioluminescence images (BLI) using IVIS system. Treatments were initiated when the tumor dissemination (judged by luminescence activity) reached baseline. […] Survival of these animals was recorded.
Five-week-old female BALB/c mice were purchased from the National Laboratory Animal Breeding and Research Center of Taipei and maintained in the oncology animal facility of Taipei Veterans General Hospital, Taipei, Taiwan. The animals were used in compliance with the institutional animal health care regulations, and all of the animal experimental procedures were approved by the Institutional Animal Care and Use Committee.
Exact dosing volume was calculated using body weight. Control group was given 100 ul of 0.9% Sodium Chloride Injection.
BALB/c mice (6 weeks) were injected with 1×10^5 CT-26-luc cells in 250 ul opti-MEM by i.p. on Day 0 (D0). After 4 days (D4), tumor cell growth was determined by measuring luminescence activity using IVIS system (baseline). Each group Bioluminescence images (BLI) was normalized by average BLI of total mice before treatment. […] Animals were monitored individually till death for survival evaluation.
The mice were imaged with the IVIS-50 system (Xenogen, Alameda, Calif.).
Overall survival was defined as the time from the date of tumor implantation to the date of death and is presented as the Kaplan-Meier survival curve.

recurrent ovarian tumor = conditions: HIPEC, 10 mg/kg
Protocol: Depicted are inflow and outflow ports and anal temperature probe to monitor internal temperature of mouse during perfusion. Mice were perfused for 1 h at the rate of 3 mL/min with Taxol® (10 mg/kg). […] Experiments were repeated in triplicate.

[6] = system: metastatic non-small lung cancer; conditions: P=0.271; cited from earlier work

O=c1[nH]c(=O)n([C@H]2C[C@H](O)[C@@H](CO)O2)cc1F [floxuridine]
higher tumor drug levels as compared to portal vein infusion [1]: 15 fold

COc1cccc2c1C(=O)c1c(O)c3c(c(O)c1C2=O)C[C@@](O)(C(=O)CO)C[C@@H]3O[C@H]1C[C@H](N)[C@H](O)[C@H](C)O1 [doxorubicin]
therapeutic efficacy (bioluminescence imaging day 14 vs day 4) ([2]; 5 mg/kg/mouse, day 5 and 10 (FIG. 5)): some therapeutic effect

CC[C@@]1(O)C(=O)OCc2c1cc1n(c2=O)Cc2cc3c(CN(C)C)c(O)ccc3nc2-1 [topotecan]
therapeutic efficacy (bioluminescence imaging day 14 vs day 4) ([2]; 10 mg/kg/mouse, day 5 and 10 (FIG. 4B)): some therapeutic effect

N.N.[Cl][Pt][Cl] [cisplatin]
therapeutic efficacy (bioluminescence imaging day 14 vs day 4) ([2]; 5 mg/kg/mouse, day 5 and 10 (FIG. 3B)): some therapeutic effect
increased exposure to the peritoneal cavity as compared to the systemic compartment [3]: 20 fold

CC(=O)O[C@H]1C(=O)[C@@]2(C)[C@H]([C@H](OC(=O)c3ccccc3)[C@]3(O)C[C@H](OC(=O)[C@H](O)[C@@H](NC(=O)c4ccccc4)c4ccccc4)C(C)=C1C3(C)C)[C@]1(OC(C)=O)CO[C@@H]1C[C@@H]2O [Taxol®, paclitaxel]
apoptosis of tumor [4]: 23.3%
therapeutic efficacy (bioluminescence imaging day 14 vs day 4) ([2]; 10 mg/kg/mouse, day 5, 8, 11 (FIG. 2B)): some efficacy
therapeutic efficacy (bioluminescence imaging day 14 vs day 4) ([2]; 10 mg/kg/mouse, day 5, 8, 11 (FIG. 6)): some efficacy
control of lung metastases (lung metastases; regional (intrapleural) delivery): some therapeutic efficacy
control of lung metastases (lung metastases; systematic delivery): unsatisfactory control of tumor
CXCR4/CXCL12 expression compared to control group ([5]; i.v. delivery): increased expression of CXCR4/CXCL12
side population cells (Hoechst 33342) ([5]; regional delivery): increased
tumor sphere (microsphere) formation of treated tumor ([5]; systematic (i.v.) delivery, tumors retrieved day 14, cultured 10 days): increased microsphere formation
side population cells (Hoechst 33342) ([5]; systematic delivery): increased
inhibition of colon tumor growth / antitumor activity (CT-26-luc cells; 10 mg/kg i.p.): did not inhibit colon tumor growth
median survival day (CT-26-luc cells; 10 mg/kg i.p.): 26 days
survival duration (CT-26-luc cells; 10 mg/kg i.p.): 27 days
inhibition of colon tumor growth (CT-26-luc cells; 10 mg/kg i.v.): did not inhibit colon tumor growth
median survival day (CT-26-luc cells; 10 mg/kg i.v.): 24 days
survival duration (CT-26-luc cells; 10 mg/kg i.v.): 27 days
complications (bowel obstruction or perforation) (recurrent ovarian tumor): higher
tumor control of recurrent tumor (recurrent ovarian tumor; perfused 1 h at 3 mL/min): good tumor control
median overall survival [6]: 11.2 months
